According to PMC6781499 (Pharmaceutics, 2019):
Where two headings read alike, the source gives them in different places.

How the values were obtained:
NOX2 = system: NOX2; set-up: method as in PMID 26975635; conditions: in vitro; cited from earlier work
[1] = Stability of Ewha-18278 in rat plasma (short-term, long-term, freeze-thaw, post-preparative); assay type: in vitro ADME; conditions: n = 3; for Stability 37 °C, 6 h / Stability Freeze-thaw / Stability RT, 6 h / Stability −20 °C, 4-W / Stability −70 °C, 4-W: rat plasma
[2] = system: ovariectomized (OVX) mice; set-up: method as in PMID 26975635; conditions: orally 10–20 mg/kg daily for 4 weeks; cited from earlier work
[3] = system: bone marrow-derived macrophages (BMMs); set-up: method as in PMID 26975635; conditions: in vitro; cited from earlier work
[4] = Solubility (aqueous / in co-solvent formulation); assay type: physicochemical
NOX1 = system: NOX1; set-up: method as in PMID 26975635; conditions: in vitro; cited from earlier work
NOX4 = system: NOX4; set-up: method as in PMID 26975635; conditions: in vitro; cited from earlier work
[5] = Pharmacokinetics of Ewha-18278 after IV and oral administration to rats (non-compartmental analysis, HPLC/UV plasma assay); assay type: in vivo, Sprague-Dawley rats; conditions: for F (absolute BA): PO 20 mg/kg vs IV 2 mg/kg
Description: The plasma sample (50 µL) with IS was deproteinized with twice the volume of acetonitrile (ACN). All HPLC analyses were performed on an Agilent 1100 series system (Palo Alto, CA, USA). Capcell-pak C18 MG120 column (3.0 mm × 250 mm, 5 µm, Shiseido, Tokyo, Japan) was the analytical column used. All the prepared samples were eluted with acetonitrile and water (65:35, v/v) containing 0.1% trifluoroacetic acid (TFA) at a flow rate of 0.5 mL/min. The sample reservoir and column oven were maintained at 4 °C and 40 °C, respectively. UV detection was performed at 284 nm and the injection volume was 30 µL.
All the animal procedures were approved by the Institutional Animal Care and Use Committee of Ewha Womans University (IACUC) (No. 2010-2-5, approved on 19 February 2010), Seoul, Korea. Seven-week-old male Sprague-Dawley rats (200–240 g) were used for the PK experiments.
The DMSO-based formulations were comprised of 10% DMSO and 90% saline-based solution (25% Cremophor® EL, 5% polyethylene glycol 400, 0.5% Tween® and 69.5% saline, v/v/v/v). The diazepam injection-based formulation applicable to humans was composed of 40% propylene glycol, 10% dehydrated ethanol, and 50% water (v/v/v). […] These concentrations were utilized to examine the effect of concentration on the PK parameters of the compound.
The rats were divided into five groups on the day of the drug administration. Two groups (n = 6) were administered the DMSO-based formulation: IV injection of 2 mg/kg and oral administration of 20 mg/kg. Three groups (n = 5–6) were treated with the diazepam injection-based formulation: IV injection of 2 mg/kg and oral administration of 20 mg/kg in two different concentrations (1 mg/mL and 2 mg/mL). The common carotid artery was catheterized for blood sampling. Blood sampling (0.2 mL) was conducted at 0, 0.033, 0.083, 0.25, 0.5, 1, 2, 4, 6, 10, and 24 h for the IV group and 0, 0.083, 0.25, 0.5, 1, 2, 4, 6, 10, 24, and 34 h for PO groups. Plasma samples mixed with IS (Ewha-18212) were analyzed by the HPLC system.

[6] = IV 2 mg/kg, diazepam injection-based formulation (1 mg/mL)
[7] = male, Sprague-Dawley, rat, plasma, iv, 2 mg/kg, IV 2 mg/kg, DMSO formulation (1 mg/mL)
[8] = male, Sprague-Dawley, rat, plasma, po, 20 mg/kg, PO 20 mg/kg, DMSO formulation (2 mg/mL)
[9] = male, Sprague-Dawley, rat, plasma, po, 20 mg/kg, PO 20 mg/kg, diazepam injection-based formulation (2 mg/mL)

Structure (SMILES): CCCc1c(-c2ccccc2)nn(-c2ccccn2)c1O [Ewha-18278]
- Effect on NOX2 activity (NOX2): directly interfering with the activity
- Stability Post-prep. ([1]; high QC concentration): 103%
- Stability Post-prep. ([1]; low QC concentration): 103%
- Stability 37 °C, 6 h ([1]; high QC concentration): 87.5%
- Stability Freeze-thaw ([1]; high QC concentration): 86.0%
- Stability RT, 6 h ([1]; high QC concentration): 93.4%
- Stability −20 °C, 4-W ([1]; high QC concentration): 90.4%
- Stability −70 °C, 4-W ([1]; high QC concentration): 97.5%
- Stability 37 °C, 6 h ([1]; low QC concentration): 89.0%
- Stability Freeze-thaw ([1]; low QC concentration): 90.4%
- Stability −20 °C, 4-W ([1]; low QC concentration): 99.4%
- Stability −70 °C, 4-W ([1]; low QC concentration): 100%
- Stability RT, 6 h ([1]; low QC concentration, vs freshly prepared QC samples): 94.5%
- Bone strength / cortical bone thickness [2]: induced bone strength by increasing cortical bone thickness
- Effect on responses of BMMs to RANKL [3]: inhibited
- Dissolution in co-solvents ([4]; mixture of propylene glycol, dehydrated ethanol, and water): completely dissolved
- Solubility of the hydrochloride salt relative to free form #2 ([4]; salt formation): strongly enhanced the solubility
- Aqueous solubility ([4]; water): highly insoluble in water
- Effect on NOX1 activity (NOX1): directly interfering with the activity
- Effect on NOX4 activity (NOX4): directly interfering with the activity
- Clt ([5]; IV 2 mg/kg, DMSO formulation (1 mg/mL)): 0.216 ± 0.084 L/h
- Clt [5, 6]: 0.250 ± 0.072 L/h
- Vd [5, 6]: 1.52 ± 1.17 L
- F (absolute BA) ([5]; DMSO formulation (2 mg/mL)): 62.4%
- F (absolute BA) ([5]; diazepam injection-based formulation (1 mg/mL)): 67.2%
- F (absolute BA) ([5]; diazepam injection-based formulation (2 mg/mL)): 43.0%
- Clt/F ([5]; PO 20 mg/kg, DMSO formulation (2 mg/mL)): 0.327 ± 0.164 L/h
- AUCinf ([5]; PO 20 mg/kg, DMSO formulation (2 mg/mL), 20 mg/kg): 19400 ± 8690 ng·h/mL
- BA (absolute), all groups / both formulations ([5]; PO 20 mg/kg, DMSO-based and diazepam injection-based formulations): more than 40%
- Clt/F ([5]; PO 20 mg/kg, diazepam injection-based formulation (1 mg/mL)): 0.531 ± 0.370 L/h
- Clt/F ([5]; PO 20 mg/kg, diazepam injection-based formulation (2 mg/mL)): 0.726 ± 0.553 L/h
- Decrease of PK parameters (AUCinf, t1/2, absolute BA) in the higher concentration group ([5]; PO 20 mg/kg, diazepam injection-based formulation, 2 mg/mL vs 1 mg/mL): ~35%
- Time of second peak in plasma concentration-time profile ([5]; PO 20 mg/kg, diazepam injection-based formulation, high concentration (2 mg/mL)): 10 h
- Time of second peak in plasma concentration-time profile ([5]; PO 20 mg/kg, diazepam injection-based formulation, low concentration (1 mg/mL)): 6 h
- Increase of AUCinf at low vs high concentration ([5]; PO, diazepam injection-based formulation, 1 mg/mL compared to 2 mg/mL): 1.6 fold
- C0 ([5]; male, Sprague-Dawley, rat, plasma, IV 2 mg/kg, DMSO formulation (1 mg/mL)): 7240 ± 2450 ng/mL
- Vd ([5]; male, Sprague-Dawley, rat, plasma, IV 2 mg/kg, DMSO formulation (1 mg/mL), read-out: Vd): 0.785 ± 0.154 L
- AUC(0-inf) [5, 7]: 2860 ± 1090 ng·h/mL
- half-life [5, 7]: 3.07 ± 2.01 h
- AUC(0-inf) [5, 8]: 17900 ng·h/mL
- Cmax [5, 8]: 4680 ± 2110 ng/mL
- Tmax [5, 8]: 0.249 ± 0.166 h
- Vd/F [5, 8]: 6.06 ± 2.32 L
- half-life [5, 8]: 14.2 ± 4.76 h
- Vd/F ([5]; male, Sprague-Dawley, rat, plasma, po, 20 mg/kg, PO 20 mg/kg, diazepam injection-based formulation (1 mg/mL)): 9.72 ± 5.17 L
- AUC(0-inf) [5, 9]: 9250 ± 4420 ng·h/mL
- Cmax [5, 9]: 6240 ± 2020 ng/mL
- Tmax [5, 9]: 0.083 h
- Vd/F [5, 9]: 7.9 ± 3.01 L
- half-life [5, 9]: 8.96 ± 2.92 h
